Results taken from the NIST ThermoML archive (doi:10.1016/j.fluid.2015.07.004).

Tests used:
[1] = mn = molality of the nth substance listed, in mol/kg; details: 298 K, 100 kPa, Liquid, Vibrating tube method
[2] = osmotic coefficient (dimensionless); mn = molality of the nth substance listed, in mol/kg; details: 100 kPa, Liquid, boiling point elevation

NC(=O)NCCC[C@H](N)C(=O)O [N5-aminocarbonyl-L-ornithine] + O
[1]
Details	mass density [kg/m3]
m1 = 0.1989	1008.22
m1 = 0.3842	1018.59
m1 = 0.6007	1029

osmotic coefficient, [2]
Details	m1 = 0.1011	m1 = 0.1989	m1 = 0.2016	m1 = 0.3942	m1 = 0.402	m1 = 0.4915	m1 = 0.6001	m1 = 0.6892
310.15 K	1.011	1.003	–	0.9986	–	0.9973	–	1.002
323.15 K	–	–	1.007	–	1.001	–	0.9931	–

OC[C@H]1O[C@H](O[C@H]2O[C@H](CO)[C@@H](O)[C@H](O)[C@H]2O)[C@H](O)[C@@H](O)[C@@H]1O [α-trehalose] + O
[1]
Details	mass density [kg/m3]
m1 = 0.1997	1022.61
m1 = 0.3989	1046.2
m1 = 0.5995	1068.34
m1 = 0.7914	1087.59

[2], 310.15 K
Details	osmotic coefficient
m1 = 0.0499	1.031
m1 = 0.0998	1.036
m1 = 0.1997	1.02
m1 = 0.2995	0.999
m1 = 0.3989	1.01
m1 = 0.4992	1.022
m1 = 0.5995	0.9904
m1 = 0.6932	1.019
m1 = 1.469	1.063
m1 = 1.982	1.08

C[N+](C)(C)[O-] [trimethylamine oxide] + O
[1]
Details	mass density [kg/m3]
m1 = 0.406	998.235
m1 = 0.7971	999.133
m1 = 1.199	1000.21
m1 = 1.59	1001.54
m1 = 2.002	1002.01
m1 = 2.445	1003.03

[2]
Details	osmotic coefficient
310.15 K, m1 = 0.1988	0.9879
310.15 K, m1 = 0.406	1.034
310.15 K, m1 = 0.62	1.062
310.15 K, m1 = 0.7971	1.152
310.15 K, m1 = 0.9921	1.133
310.15 K, m1 = 1.199	1.15
310.15 K, m1 = 1.392	1.192
310.15 K, m1 = 1.59	1.31
323.15 K, m1 = 0.5008	1.076
323.15 K, m1 = 1.015	1.171
323.15 K, m1 = 1.5	1.27

CN(C)CC(=O)O [(Dimethylamino)acetic acid] + O
[1]
Details	mass density [kg/m3]
m1 = 0.4001	1005.64
m1 = 1.003	1016.88
m1 = 1.401	1024.01
m1 = 1.992	1033.69

[2]
Details	osmotic coefficient
310.15 K, m1 = 0.0986	1.069
310.15 K, m1 = 0.2005	1.035
310.15 K, m1 = 0.4001	1.072
310.15 K, m1 = 0.8024	1.076
310.15 K, m1 = 1.003	1.126
310.15 K, m1 = 1.193	1.141
310.15 K, m1 = 1.401	1.147
310.15 K, m1 = 1.585	1.154
310.15 K, m1 = 1.797	1.169
310.15 K, m1 = 1.992	1.206
323.15 K, m1 = 0.2056	0.981
323.15 K, m1 = 0.2889	0.989
323.15 K, m1 = 0.4998	1.008
323.15 K, m1 = 1.015	1.021
323.15 K, m1 = 1.5	1.114
